Source: US5030760A, “Tetrahydrophthalimides, and their production and use” (Sumitomo Chemical Company, Ltd., priority 1981, dated 1991)

Experiments:
[1] = system: wild mustard; test: Test Example 1, foliar treatment, herbicidal activity; type: in vivo, Brassica kaber; conditions: 3 weeks
Experimental: (§1) The application of the tetrahydrophthalimides (I) as herbicides will be illustratively shown in the following Examples wherein the phytotoxicity to cultivated plants and the herbicidal activity on weeds were evaluated as follows: the aerial parts of the test plants were cut off and weighed (fresh weight); the percentage of the fresh weight of the treated plant to that of the untreated plant was calculated with the latter fresh weight taken as 100; and the crop damage and the herbicidal activity were evaluated by the standard given in the table below. The rating values of phytotoxicity, 0 and 1, and those of herbicidal effect, 5 and 4, are generally regarded as satisfactory to protect cultivated plants and control weeds, respectively. The rating values in the paddy field test alone were calculated from the dry weight of the test plants.
(§2) Plastic beakers (diameter, 10 cm; height, 10 cm) were filled with upland field soil, and the seeds of corn, barnyardgrass, wild oat, wild mustard and velvetleaf were separately sown in the beakers and grown for 2 weeks in the greenhouse. A designed amount of the test compound was sprayed to the foliage of the test plants by means of a small hand sprayer. After the spraying, the test plants were further grown for 3 weeks in the greenhouse, and herbicidal activity was examined. In this foliar treatment, the test compounds were formulated into an emulsifiable concentrate according to Preparation Example 2 and applied at a spray volume of 5 liters per are by dispersing it in water with the addition of a spreading agent.

[2] = system: cotton; test: Test Example 4, pre-emergence treatment, phytotoxicity to cotton; type: in vivo; conditions: 20 days; further: ranges in brackets are in %
Experimental: as §1
(§3) Plastic beakers (diameter, 10 cm; height, 10 cm) were filled with upland field soil, and the seeds of corn, cotton and soybean and the seeds of morningglory, velvetleaf, Johnsongrass and green foxtail were separately sown in the beakers. A designed amount of the test compound was sprayed over the top by means of a small hand sprayer. After the spraying, the test plants were grown for 20 days in the greenhouse, and herbicidal activity and phytotoxicity were examined. In this pre-emergence treatment, the test compounds were formulated into an emulsifiable concentrate according to Preparation Example 2 and applied at a spray volume of 5 liters per are by dispersing it in water with the addition of a spreading agent.

[3] = system: Johnsongrass; test: Test Example 4, pre-emergence treatment, herbicidal activity; type: in vivo, Sorghum halepense; conditions: 20 days; further: ranges in brackets are in %
Experimental: as §1, §3

[4] = system: soybean; test: Test Example 4, pre-emergence treatment, phytotoxicity to soybean; type: in vivo; conditions: 20 days; further: ranges in brackets are in %
Experimental: as §1, §3

[5] = system: corn; test: Test Example 1, foliar treatment, phytotoxicity to corn; type: in vivo; conditions: 3 weeks; further: ranges in brackets are in %
Experimental: as §1, §2

[6] = system: wild oat; test: Test Example 1, foliar treatment, herbicidal activity; type: in vivo, Avena fatua; conditions: 3 weeks; further: ranges in brackets are in %
Experimental: as §1, §2

[7] = system: green foxtail; test: Test Example 4, pre-emergence treatment, herbicidal activity; type: in vivo, Setaria viridis; conditions: 20 days; further: ranges in brackets are in %
Experimental: as §1, §3

[8] = system: velvetleaf; test: Test Example 1, foliar treatment, herbicidal activity; type: in vivo, Abutilon theophrasti; conditions: 3 weeks; further: ranges in brackets are in %
Experimental: as §1, §2

[9] = system: barnyardgrass; test: as above; type: in vivo, Echinochloa crus-galli; conditions: 3 weeks; further: ranges in brackets are in %
Experimental: as §1, §2

[10] = system: morningglory; test: Test Example 4, pre-emergence treatment, herbicidal activity; type: in vivo; conditions: 20 days; further: ranges in brackets are in %
Experimental: as §1, §3

[11] = system: corn; test: Test Example 4, pre-emergence treatment, phytotoxicity to corn; type: in vivo; conditions: 20 days; further: ranges in brackets are in %
Experimental: as §1, §3

[12] = system: velvetleaf; test: Test Example 4, pre-emergence treatment, herbicidal activity; type: in vivo, Abutilon theophrasti; conditions: 20 days; further: ranges in brackets are in %
Experimental: as §1, §3

[13] = system: sicklepod; test: Test Example 3, soil surface spraying, herbicidal activity; type: in vivo, Cassia obtusifolia; conditions: 20 days; further: ranges in brackets are in %
Experimental: as §1
(§4) Plastic trays (35 cm×25 cm×15 cm) were filled with upland field soil, and the seeds of tall morningglory, velvetleaf and sicklepod and the seeds of corn were sown therein. A designed amount of the test compounds formulated into a wettable powder according to Preparation Example 1 was dispersed in water and applied by spraying at a spray volume of 5 liters per are to the whole surface of the soil. After the spraying, the test plants were placed in a greenhouse and grown for 20 days, and herbicidal activity and phytotoxicity were examined.

[14] = system: corn; test: Test Example 3, soil surface spraying, phytotoxicity to corn; type: in vivo; conditions: 20 days; further: ranges in brackets are in %
Experimental: as §1, §4

[15] = system: tall morningglory; test: Test Example 3, soil surface spraying, herbicidal activity; type: in vivo, Ipomoea purpurea; conditions: 20 days; further: ranges in brackets are in %
Experimental: as §1, §4

[16] = system: velvetleaf; test: as above; type: in vivo, Abutilon theophrasti; conditions: 20 days
Experimental: as §1, §4
Wherever Herbicidal activity, Velvetleaf is given: ranges in brackets are in %.

| SMILES | Herbicidal activity, Wild mustard ([1]; 1.25 g/are) | Herbicidal activity, Wild mustard ([1]; 5 g/are) | Phytotoxicity, Cotton ([2]; 2.5 g/are) | Phytotoxicity, Cotton ([2]; 10 g/are) | Herbicidal activity, Johnsongrass ([3]; 2.5 g/are) | Herbicidal activity, Johnsongrass ([3]; 10 g/are) | Phytotoxicity, Corn ([5]; 1.25 g/are) | Phytotoxicity, Corn ([5]; 5 g/are) | Herbicidal activity, Wild cat ([6]; 1.25 g/are) | Herbicidal activity, Wild cat ([6]; 5 g/are) | Herbicidal activity, Green foxtail ([7]; 10 g/are) | Herbicidal activity, Velvetleaf ([8]; 1.25 g/are) | Herbicidal activity, Velvetleaf ([8]; 5 g/are) | Herbicidal activity, Barnyardgrass ([9]; 1.25 g/are) | Herbicidal activity, Barnyardgrass ([9]; 5 g/are) | Herbicidal activity, Morningglory ([10]; 10 g/are) | Phytotoxicity, Corn ([11]; 2.5 g/are) | Phytotoxicity, Corn ([11]; 10 g/are) | Herbicidal activity, Velvetleaf ([12]; 2.5 g/are) | Herbicidal activity, Velvetleaf ([12]; 10 g/are) | further results |
| --- | --- | --- | --- | --- | --- | --- | --- | --- | --- | --- | --- | --- | --- | --- | --- | --- | --- | --- | --- | --- | --- |
| CCC(C)Oc1cc(N2C(=O)C3=C(CCCC3)C2=O)c(F)cc1Br (centres unmarked) [compound 15] | 5 (0) | 5 (0) | 0 (100) | 1 (90-99) | 4 (1-10) | 4 (1-10) | 0 (100) | 1 (90-99) | 2 (21-40) | 5 (0) | 4 (1-10) | 5 (0) | 5 (0) | 2 (21-40) | 5 (0) | 5 (0) | 0 (100) | 0 (100) | 4 (1-10) | 5 (0) | Phytotoxicity, Soybean ([4]; 2.5 g/are): 0 (100); Phytotoxicity, Soybean ([4]; 10 g/are): 1 (90-99) |
| CCOc1cc(N2C(=O)C3=C(CCCC3)C2=O)c(F)cc1Cl [compound 2] | 5 (0) | 5 (0) | 0 (100) | 0 (100) | 4 (1-10) | 5 (0) | 0 (100) | 1 (90-99) | 3 (11-20) | 5 (0) | 5 (0) | 5 (0) | 5 (0) | 3 (11-20) | 5 (0) | 4 (1-10) | 0 (100) | 1 (90-99) | 5 (0) | 5 (0) | Phytotoxicity, Soybean ([4]; 2.5 g/are): 0 (100); Phytotoxicity, Soybean ([4]; 10 g/are): 0 (100); Herbicidal activity, Green foxtail ([7]; 2.5 g/are): 4 (1-10); Herbicidal activity, Sicklepod ([13]; 5 g/are): 4 (1-10); Herbicidal activity, Sicklepod ([13]; 10 g/are): 5 (0); Phytotoxicity, Corn ([14]; 5 g/are): 0 (100); Phytotoxicity, Corn ([14]; 10 g/are): 0 (100); Herbicidal activity, Morningglory ([10]; 2.5 g/are): 4 (1-10); Herbicidal activity, Tall morningglory ([15]; 5 g/are): 4 (1-10); Herbicidal activity, Tall morningglory ([15]; 10 g/are): 4 (1-10); Herbicidal activity, Velvetleaf ([16]; 5 g/are): 5 (0); Herbicidal activity, Velvetleaf ([16]; 10 g/are): 5 (0) |
| CCOc1cc(N2C(=O)C3=C(CCCC3)C2=O)c(F)cc1Br [compound 13] | 5 (0) | 5 (0) | 0 (100) | 1 (90-99) | 4 (1-10) | 5 (0) | 0 (100) | 1 (90-99) | 2 (21-40) | 5 (0) | 5 (0) | 5 (0) | 5 (0) | 2 (21-40) | 5 (0) | 5 (0) | 0 (100) | 0 (100) | 4 (1-10) | 5 (0) | Phytotoxicity, Soybean ([4]; 2.5 g/are): 0 (100); Phytotoxicity, Soybean ([4]; 10 g/are): 1 (90-99); Herbicidal activity, Green foxtail ([7]; 2.5 g/are): 4 (1-10) |
| CCCOc1cc(N2C(=O)C3=C(CCCC3)C2=O)c(F)cc1Cl [compound 3] | 5 (0) | 5 (0) | – | – | 4 (1-10) | 5 (0) | 0 (100) | 1 (90-99) | 4 (1-10) | 5 (0) | 5 (0) | 5 (0) | 5 (0) | 4 (1-10) | 5 (0) | 4 (1-10) | 0 (100) | 1 (90-99) | 5 (0) | 5 (0) | Herbicidal activity, Green foxtail ([7]; 2.5 g/are): 4 (1-10); Herbicidal activity, Sicklepod ([13]; 5 g/are): 4 (1-10); Herbicidal activity, Sicklepod ([13]; 10 g/are): 5 (0); Phytotoxicity, Corn ([14]; 5 g/are): 0 (100); Phytotoxicity, Corn ([14]; 10 g/are): 0 (100); Herbicidal activity, Morningglory ([10]; 2.5 g/are): 4 (1-10); Herbicidal activity, Tall morningglory ([15]; 5 g/are): 4 (1-10); Herbicidal activity, Tall morningglory ([15]; 10 g/are): 5 (0); Herbicidal activity, Velvetleaf ([16]; 5 g/are): 5 (0); Herbicidal activity, Velvetleaf ([16]; 10 g/are): 5 (0) |
| CCCOc1cc(N2C(=O)C3=C(CCCC3)C2=O)c(F)cc1Br [compound 14] | 5 (0) | 5 (0) | 0 (100) | 0 (100) | 4 (1-10) | 4 (1-10) | 0 (100) | 1 (90-99) | 3 (11-20) | 5 (0) | 4 (1-10) | 5 (0) | 5 (0) | 3 (11-20) | 5 (0) | 4 (1-10) | 0 (100) | 0 (100) | 4 (1-10) | 5 (0) | Phytotoxicity, Soybean ([4]; 2.5 g/are): 0 (100); Phytotoxicity, Soybean ([4]; 10 g/are): 1 (90-99); Herbicidal activity, Green foxtail ([7]; 2.5 g/are): 4 (1-10) |
